This note sets out measurements from patent publication US9018374B2, “Crystal of amide compound” (Takeda Pharmaceutical Company Limited, priority 2010, dated 2015).

Entries after “also recorded” stand apart in the source; their conditions may differ.

The nature of data set [1]: Moisture adsorption analysis. The class given is physicochemical. Particulars: 25° C., hydrochloride. As to the method: Moisture adsorption of type A crystal and type B crystal was automatically analyzed by VTI Symmetrical Gravimetric Analyzer in step-isothermal mode (SGA-100 for type A crystal, SGA-CX for type B crystal). Samples were exposed various relative humidities (RH) at 25° C. The weight of the samples at each relative humidity was recorded after equilibrium (weight change of less than 0.02% within 10 min).

Another data set is described as follows: Slurry interconversion. The conditions noted are these: for crystal form 1 day later: 20 mg in 0.2 mL isopropyl alcohol, slurry at ambient temperature, powder X-ray diffraction, hydrochloride. The class given is physicochemical. The procedure:
Type A crystal, type B crystal, and a mixture (1:1) of type A crystal and type B crystal (each 20 mg) were measured in vials, and isopropyl alcohol (0.2 mL) was added to give suspension containing excess solids remaining therein. The vial was sealed, and shaken on a slurry wheel at ambient temperature for 1 day at steady rotation. Thereafter, the solids were collected by filtration.

A short description of the next data set: Dissolution test. Particulars: room temperature (25° C.). The procedure: To type A crystal and type B crystal (each 50 mg) were added 2-butanone, ethyl acetate, toluene, n-heptane and tert-butylmethylether (each 5 mL), and the dissolution property was measured using a powder suspension (25° C., 2 hr). The suspension was centrifuged, the supernatant was filtered with a filter (pore size 0.22 μm), and the solvent was evaporated from the filtrate under a nitrogen atmosphere. The residue obtained by evaporation was dissolved in a mixed solution of 50 mM aqueous ammonium acetate solution/acetonitrile (1:1), and measured by HPLC.

Regarding `COCCCCn1c(C(=O)N(CC(C)C)[C@@H]2CNC[C@H](C(=O)N3CCOCC3)C2)nc2ccccc21.Cl` [type A crystal, 1-(4-methoxybutyl)-N-(2-methylpropyl)-N-[(3S,5R)-5-(morpholin-4-ylcarbonyl)piperidin-3-yl]-1H-benzimidazole-2-carboxamide hydrochloride, reference compound], the “level (%) of weight change” value in data set [1] (relative humidity 30% RH) was −0.1%; in data set [1] (relative humidity 50% RH), 0.0%; in data set [1] (relative humidity 70% RH), 7.6%. The “crystal form 1 day later” value in the data set “Slurry interconversion” was “convert to type B crystal”.

On to `COCCCCn1c(C(=O)N(CC(C)C)[C@@H]2CNC[C@H](C(=O)N3CCOCC3)C2)nc2ccccc21.Cl` [type B crystal, 1-(4-methoxybutyl)-N-(2-methylpropyl)-N-[(3S,5R)-5-(morpholin-4-ylcarbonyl)piperidin-3-yl]-1H-benzimidazole-2-carboxamide hydrochloride], for which the “level (%) of weight change” value in data set [1] (relative humidity 30% RH) worked out at 0.0%; in data set [1] (relative humidity 50% RH) it was 0.5%; in data set [1] (relative humidity 70% RH), 0.9%. Moreover, the “thermodynamic stability as compared to type A crystal (from dissolution test)” value in the data set “Dissolution test” is “thermodynamically stable”. Further, the “crystal form 1 day later” value in “Slurry interconversion” is listed as “no change; also recorded: type B”. Further, the “thermodynamic stability as compared to type A crystal (from slurry experiment)” value in “Slurry interconversion” (ambient temperature) is “thermodynamically stable”.
